The values that follow come from US20230416330A1, “Optimized GIP Peptide Analogues” (Antag Therapeutics ApS, priority 2019, published 2023).

Each structure is given as a SMILES string. Starred links: 1 amine or outer side, 2 acyl side, 3 side chain; linkers in the order of their positions; H or OH if unused. Non-standard residues stand in square brackets, D forms with d. Residues, ends and D or L forms follow the SMILES beside them. Groups on a side chain read outwards from the residue. *: point of attachment. C18 diacid = O=C(O)CCCCCCCCCCCCCCCCC(=O)*; C16 diacid = O=C(O)CCCCCCCCCCCCCCC(=O)*; γGlu = O=C(O)[C@H](CCC(=O)[*:2])N[*:1]; Glutaryl = O=C(CCCC(=O)[*:2])[*:1]; Nle = CCCC[C@H](N)C(=O)O; AEEA = NCCOCCOCC(=O)O; Aib = CC(C)(N)C(=O)O

The nature of data set [1]: Solubility by visual inspection of peptide solutions. Format: physicochemical. The procedure: (§1) Peptides were either dissolved in sodium phosphate buffer (50 mM, pH 7.4, filtered) or dissolved in ultrapure (MilliQ) water (adjusted to pH 7.4 with NaOH, filtered) (see Table 3). All peptide samples were prepared to a concentration of 1, 5, 7.5 or 15 mg/ml. All samples, with the exception of reference peptides GIP(3-30), AT158, and AT482 dissolved readily and produced clear and colorless solutions with gentle mixing. Peptide samples were subsequently filtered through 0.22 μm nylon filters (Q-Max® RR syringe filter, 13 mm, Frisenette, DK) to produce particle-free solutions. All samples were added to a 96-well plate reader for the ThT assay at t=0.
Clear visual appearance may be taken as an indicator of the immediate solubility of the peptide. […] Thus, A13Aib and/or N24E substitutions appear to increase solubility.

The nature of data set [2]: Physical stability: fibril formation in Thioflavin T (ThT) assay with agitation. Format: physicochemical. The conditions noted are these: 25° C., agitation. The procedure: Continuous measurement of the fluorescence emission at 486 nm can be used as a measure of fibrillation behavior of peptides and proteins. The time until onset of fibrillation or fibrillation lag time is estimated here by defining the lag time (Tlag) as the point in time where the signal relative to the pre-transition baseline has reached 10% of the post-transition baseline.
50 mM sodium phosphate buffer for dissolving some samples was prepared in ultrapure water (Milli-Q® Reference A+ System, Merck) with a resistivity of 18.2 MΩ·cm. The buffer was adjusted to pH 7.4 and filtered.
The ultrapure water (MilliQ) for dissolving some samples was adjusted to pH 7.4 with NaOH and filtered prior to sample preparation.
as §1
For each sample, […] ThT (1 mM) was added to 1.2 mL peptide solution. From this sample mixture, an amount of 200 uL/well was pipetted into four or five wells (n=4 or 5). Blank samples (buffer+ThT) were also included. One 3 mm silica bead was added to each well containing samples and the plate was subjected to orbital rotation at 300 rpm to agitate and stress the samples. The temperature was kept at 25° C. throughout the measurement.

`CC[C@H](C)[C@H](NC(=O)[C@H](CCCCN)NC(=O)[C@H](CC(=O)O)NC(=O)[C@H](CC(C)C)NC(=O)C(C)(C)NC(=O)[C@@H](NC(=O)[C@H](CO)NC(=O)[C@H](Cc1ccc(O)cc1)NC(=O)[C@H](CCC(=O)O)NC(=O)[C@H](CO)NC(=O)[C@@H](NC(=O)[C@H](Cc1ccccc1)NC(=O)[C@@H](NC(=O)CNC(=O)[C@@H](N)CCC(=O)O)[C@@H](C)O)[C@@H](C)CC)[C@@H](C)CC)C(=O)N[C@@H](CCCCNC(=O)COCCOCCNC(=O)COCCOCCNC(=O)CC[C@H](NC(=O)CCCCCCCCCCCCCCCCC(=O)O)C(=O)O)C(=O)N[C@@H](CCC(N)=O)C(=O)N[C@@H](CCC(N)=O)C(=O)N[C@@H](CC(=O)O)C(=O)N[C@@H](Cc1ccccc1)C(=O)N[C@H](C(=O)N[C@@H](CCC(=O)O)C(=O)N[C@@H](Cc1c[nH]c2ccccc12)C(=O)N[C@@H](CC(C)C)C(=O)N[C@@H](CC(C)C)C(=O)N[C@@H](C)C(=O)N[C@@H](CCC(N)=O)C(=O)N[C@@H](CCCCN)C(=O)N1CCC[C@H]1C(=O)N[C@@H](CO)C(=O)N[C@@H](CO)C(=O)NCC(=O)N[C@@H](C)C(=O)N1CCC[C@H]1C(=O)N1CCC[C@H]1C(=O)N1CCC[C@H]1C(=O)N[C@@H](CO)C(=O)O)C(C)C` [AT712] (H-EGTFISEYSI[Aib]LDKIK([AEEA-AEEA-γGlu-C18 diacid])QQDFVEWLLAQKPSSGAPPPS-OH; N-terminus assumed): in data set [1] (1 mg/ml, TFA, Phosphate (7.4)), the Visual appearance result was “Clear”. Moreover, the “Avr lag time (h)” value in data set [2] (1 mg/ml, TFA, Phosphate (7.4)) is given as “fnd (Fnd = fibrils not detected within experiment time (96 hours) with agitation.)”.
In the case of `CC[C@H](C)[C@H](NC(=O)[C@H](C)NC(=O)[C@H](CC(=O)O)NC(=O)[C@H](CCSC)NC(=O)[C@H](C)NC(=O)[C@@H](NC(=O)[C@H](CO)NC(=O)[C@H](Cc1ccc(O)cc1)NC(=O)[C@H](CC(=O)O)NC(=O)[C@H](CO)NC(=O)[C@@H](NC(=O)[C@H](Cc1ccccc1)NC(=O)[C@@H](NC(=O)CNC(=O)[C@@H](N)CCC(=O)O)[C@@H](C)O)[C@@H](C)CC)[C@@H](C)CC)C(=O)N[C@@H](CCCCNC(=O)CCCCCCCCCCCCCCC(=O)O)C(=O)N[C@@H](CCC(N)=O)C(=O)N[C@@H](CCC(N)=O)C(=O)N[C@@H](CC(=O)O)C(=O)N[C@@H](Cc1ccccc1)C(=O)N[C@H](C(=O)N[C@@H](CCC(=O)O)C(=O)N[C@@H](Cc1c[nH]c2ccccc12)C(=O)N[C@@H](CC(C)C)C(=O)N[C@@H](CC(C)C)C(=O)N[C@@H](C)C(=O)N[C@@H](CCC(N)=O)C(=O)N[C@@H](CCCCN)C(=O)N1CCC[C@H]1C(=O)N[C@@H](CO)C(=O)N[C@@H](CO)C(=O)NCC(=O)N[C@@H](C)C(=O)N1CCC[C@H]1C(=O)N1CCC[C@H]1C(=O)N1CCC[C@H]1C(=O)N[C@@H](CO)C(=O)O)C(C)C` [AT748] (H-EGTFISDYSIAMDAIK(C16 diacid)QQDFVEWLLAQKPSSGAPPPS-OH; N-terminus assumed), the Visual appearance result in data set [1] (1 mg/ml, TFA, Phosphate (7.4)) is “Clear”. Moreover, in data set [2] (1 mg/ml, TFA, Phosphate (7.4)), the “Avr lag time” value is on record as under 24 h.
As to `CCCC[C@H](NC(=O)C(C)(C)NC(=O)[C@@H](NC(=O)[C@H](CO)NC(=O)[C@H](Cc1ccc(O)cc1)NC(=O)[C@H](CCC(=O)O)NC(=O)[C@H](CO)NC(=O)[C@@H](NC(=O)[C@H](Cc1ccccc1)NC(=O)[C@@H](NC(=O)CNC(=O)CCCC(=O)O)[C@@H](C)O)[C@@H](C)CC)[C@@H](C)CC)C(=O)N[C@@H](CCC(=O)O)C(=O)N[C@@H](CCCCN)C(=O)N[C@H](C(=O)N[C@@H](CCCCNC(=O)COCCOCCNC(=O)COCCOCCNC(=O)CC[C@H](NC(=O)CCCCCCCCCCCCCCCCC(=O)O)C(=O)O)C(=O)N[C@@H](CCC(N)=O)C(=O)N[C@@H](CCC(N)=O)C(=O)N[C@@H](CCC(=O)O)C(=O)N[C@@H](Cc1ccccc1)C(=O)N[C@H](C(=O)N[C@@H](CCC(=O)O)C(=O)N[C@@H](Cc1c[nH]c2ccccc12)C(=O)N[C@@H](CC(C)C)C(=O)N[C@@H](CC(C)C)C(=O)N[C@@H](C)C(=O)N[C@@H](CCC(N)=O)C(=O)N[C@@H](CCCCN)C(=O)N1CCC[C@H]1C(=O)N[C@@H](CO)C(=O)N[C@@H](CO)C(=O)NCC(=O)N[C@@H](C)C(=O)N1CCC[C@H]1C(=O)N1CCC[C@H]1C(=O)N1CCC[C@H]1C(=O)N[C@@H](CO)C(=O)O)C(C)C)[C@@H](C)CC` [AT706] (Glutaryl-GTFISEYSI[Aib][Nle]EKIK([AEEA-AEEA-γGlu-C18 diacid])QQEFVEWLLAQKPSSGAPPPS-OH), the Visual appearance entry in data set [1] (1 mg/ml, TFA, Phosphate (7.4)) was “Clear”; in data set [1] (7.5 mg/ml, Na, MilliQ (8)) it was “Clear”; in data set [1] (15 mg/ml, Na, MilliQ (8)), “Clear”. For the same molecule, the “Avr lag time (h)” value in data set [2] (1 mg/ml, TFA, Phosphate (7.4)) is reported as “fnd (Fnd = fibrils not detected within experiment time (96 hours) with agitation.)”; in data set [2] (7.5 mg/ml, Na, MilliQ (8)), “fnd (Fnd = fibrils not detected within experiment time (96 hours) with agitation.)”; in data set [2] (15 mg/ml, Na, MilliQ (8)), “fnd (Fnd = fibrils not detected within experiment time (96 hours) with agitation.)”.
In the case of `CC[C@H](C)[C@H](NC(=O)[C@H](CCCCN)NC(=O)[C@H](CCC(=O)O)NC(=O)[C@H](CC(C)C)NC(=O)C(C)(C)NC(=O)[C@@H](NC(=O)[C@H](CO)NC(=O)[C@H](Cc1ccc(O)cc1)NC(=O)[C@H](CCC(=O)O)NC(=O)[C@H](CO)NC(=O)[C@@H](NC(=O)[C@H](Cc1ccccc1)NC(=O)[C@@H](NC(=O)CNC(=O)[C@@H](N)CCC(=O)O)[C@@H](C)O)[C@@H](C)CC)[C@@H](C)CC)C(=O)N[C@@H](CCCCNC(=O)COCCOCCNC(=O)COCCOCCNC(=O)CC[C@H](NC(=O)CCCCCCCCCCCCCCCCC(=O)O)C(=O)O)C(=O)N[C@@H](CCC(N)=O)C(=O)N[C@@H](CCC(N)=O)C(=O)N[C@@H](CCC(=O)O)C(=O)N[C@@H](Cc1ccccc1)C(=O)N[C@H](C(=O)N[C@@H](CCC(=O)O)C(=O)N[C@@H](Cc1c[nH]c2ccccc12)C(=O)N[C@@H](CC(C)C)C(=O)N[C@@H](CC(C)C)C(=O)N[C@@H](C)C(=O)N[C@@H](CCC(N)=O)C(=O)N[C@@H](CCCCN)C(=O)N1CCC[C@H]1C(=O)N[C@@H](CO)C(=O)N[C@@H](CO)C(=O)NCC(=O)N[C@@H](C)C(=O)N1CCC[C@H]1C(=O)N1CCC[C@H]1C(=O)N1CCC[C@H]1C(=O)N[C@@H](CO)C(N)=O)C(C)C` [AT714] (H-EGTFISEYSI[Aib]LEKIK([AEEA-AEEA-γGlu-C18 diacid])QQEFVEWLLAQKPSSGAPPPS-NH2; N-terminus assumed), the Visual appearance result in data set [1] (1 mg/ml, TFA, Phosphate (7.4)) was “Clear”. Also, in data set [2] (1 mg/ml, TFA, Phosphate (7.4)), the “Avr lag time (h)” value is “fnd (Fnd = fibrils not detected within experiment time (96 hours) with agitation.)”.
For `CC[C@H](C)[C@H](NC(=O)[C@H](CO)NC(=O)[C@H](Cc1ccc(O)cc1)NC(=O)[C@H](CC(=O)O)NC(=O)[C@H](CO)NC(=O)[C@@H](NC(=O)[C@H](Cc1ccccc1)NC(=O)[C@@H](NC(=O)CNC(=O)[C@@H](N)CCC(=O)O)[C@@H](C)O)[C@@H](C)CC)C(=O)N[C@@H](C)C(=O)N[C@@H](CCSC)C(=O)N[C@@H](CC(=O)O)C(=O)N[C@@H](CCCCN)C(=O)N[C@@H](CCCCNC(=O)CCCCCCCCCCCCCCC(=O)O)C(=O)N[C@@H](Cc1c[nH]cn1)C(=O)N[C@@H](CCC(N)=O)C(=O)N[C@@H](CCC(N)=O)C(=O)N[C@@H](CC(=O)O)C(=O)N[C@@H](Cc1ccccc1)C(=O)N[C@H](C(=O)N[C@@H](CCC(=O)O)C(=O)N[C@@H](Cc1c[nH]c2ccccc12)C(=O)N[C@@H](CC(C)C)C(=O)N[C@@H](CC(C)C)C(=O)N[C@@H](C)C(=O)N[C@@H](CCC(N)=O)C(=O)N[C@@H](CCCCN)C(=O)N1CCC[C@H]1C(=O)N[C@@H](CO)C(=O)N[C@@H](CO)C(=O)NCC(=O)N[C@@H](C)C(=O)N1CCC[C@H]1C(=O)N1CCC[C@H]1C(=O)N1CCC[C@H]1C(=O)N[C@@H](CO)C(=O)O)C(C)C` [AT742] (H-EGTFISDYSIAMDKK(C16 diacid)HQQDFVEWLLAQKPSSGAPPPS-OH; N-terminus assumed) the same measures were “Clear” and “fnd (Fnd = fibrils not detected within experiment time (96 hours) with agitation.)”.
